# Tested on: conscious renally hypertensive rats
# Assay: Effect after oral administration in conscious renally hypertensive rats
# Type: in vivo, rat
# Details: 10 mg/kg
# Method: In addition, compounds D, E, F, G, H, M and O were tested on conscious renally hypertensive rats for their effect after oral administration using methods known from the literature.
row,SMILES,hypotensive effect
1,"CCCc1nc2c(C)cc(N3CCCCS3(=O)=O)cc2n1Cc1ccc(-c2ccccc2-c2nn[nH]n2)cc1 [Substance G, 4'-[[2-n-propyl-4-methyl-6-(butanesultam-1-yl)-benzimidazol-1-yl]-methyl]-2-(1H-tetrazol-5-yl)-biphenyl]",hypotensive effect
2,"CCCc1nc2c(C)cc(-c3nc4ccccc4n3C)cc2n1Cc1ccc(-c2ccccc2-c2nnn[nH]2)cc1 [Substance E, 4'-[[2-n-propyl-4-methyl-6-(1-methylbenzimidazol-2-yl)-benzimidazol-1-yl]-methyl]-2-(1H-tetrazol-5-yl)-biphenyl]",hypotensive effect
3,"Cc1cc(-c2nc3ccccc3n2C)cc2c1nc(C1CC1)n2Cc1ccc(-c2ccccc2C(=O)O)cc1 [Substance M, 4'-[(2-cyclopropyl-4-methyl-6-(1-methylbenzimidazol-2-yl)-benzimidazol-1-yl)-methyl]-biphenyl-2-carboxylic acid]",hypotensive effect
4,"CCCc1nc2c(C)cc(-c3nc4ccccc4n3C)cc2n1Cc1ccc(-c2ccccc2C(=O)O)cc1 [Substance D, 4'-[[2-n-propyl-4-methyl-6-(1-methylbenzimidazol-2-yl)-benzimidazol-1-yl]-methyl]-biphenyl-2-carboxylic acid]",hypotensive effect
5,"CCCc1nc2c(C)cc(N3Cc4ccccc4C3=O)cc2n1Cc1ccc(-c2ccccc2-c2nnn[nH]2)cc1 [Substance F, 4'-[[2-n-propyl-4-methyl-6-(1-oxo-isoindolin-2-yl)-benzimidazol-1-yl]-methyl]-2-(1H-tetrazol-5-yl)-biphenyl]",hypotensive effect
6,"CCCc1nc2c(C)cc(-c3cn4cccnc4n3)cc2n1Cc1ccc(-c2ccccc2-c2nnn[nH]2)cc1 [Substance O, 4'-[(2-n-propyl-4-methyl-6-(imidazo[1,2-a]pyrimidin-2-yl)-benzimidazol-1-yl)-methyl]-2-(1H-tetrazol-5-yl)-biphenyl]",hypotensive effect
7,"CCCCc1nc2c(C)cc(N3C(=O)C(C)=C(C)C3=O)cc2n1Cc1ccc(-c2ccccc2C(=O)O)cc1 [Substance H, 4'-[[2-n-butyl-6-(2,3-dimethylmaleic acid imino)-4-methyl-benzimidazol-1-yl]-methyl]-biphenyl-2-carboxylic acid semihydrate]",hypotensive effect
